Data: ChEMBL document CHEMBL1201862, “PubChem BioAssay data set” (2004)
Active and inactive are the calls of the source.

Legend:
Coagulation factor XII = target: T1, Coagulation factor XII (Homo sapiens, UniProt P00748); format: functional;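 note: activated factor XIIa alpha cleaving a fluorogenic AMC peptide substrate; inhibitor potency from loss of enzyme activity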
T1 sequence (P00748 whole entry): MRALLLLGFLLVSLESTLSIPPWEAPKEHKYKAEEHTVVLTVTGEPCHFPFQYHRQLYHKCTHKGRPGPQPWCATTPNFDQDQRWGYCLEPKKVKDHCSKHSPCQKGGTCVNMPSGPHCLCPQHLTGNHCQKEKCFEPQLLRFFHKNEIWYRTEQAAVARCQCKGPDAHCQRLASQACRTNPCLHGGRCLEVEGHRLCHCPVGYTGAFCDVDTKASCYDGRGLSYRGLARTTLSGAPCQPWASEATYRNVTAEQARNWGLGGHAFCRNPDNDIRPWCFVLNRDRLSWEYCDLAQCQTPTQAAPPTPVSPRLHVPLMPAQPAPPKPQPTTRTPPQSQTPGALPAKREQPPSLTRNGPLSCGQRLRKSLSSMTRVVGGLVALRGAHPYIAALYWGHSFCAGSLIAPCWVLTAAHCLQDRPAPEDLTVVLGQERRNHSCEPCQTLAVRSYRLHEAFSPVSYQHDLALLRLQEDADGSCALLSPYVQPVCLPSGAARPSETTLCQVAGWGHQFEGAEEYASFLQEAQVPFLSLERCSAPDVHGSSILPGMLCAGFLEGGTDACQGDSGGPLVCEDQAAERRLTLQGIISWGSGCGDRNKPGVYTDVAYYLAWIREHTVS

Cytochrome P450 3A4 = Cytochrome P450 3A4 (Homo sapiens, UniProt P08684);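 note: CYP3A4 tested as one member of a cytochrome P450 panel screen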
[1] = NIH3T3 cell viability loss – ATP luminescence, mouse fibroblasts, counter-screen, dose response (AID 2010); format: functional, cell-based;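 note: cells exposed to compound for about 90 hours before reading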
[2] = Trypanosoma cruzi growth suppression in host cells – NIH3T3 host cells, beta-gal luminescence, confirmation (AID 2044); format: functional, cell-based;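 note: intracellular parasites grown in NIH/3T3 mouse fibroblasts as host cells; luminescent beta-galactosidase reporter signal from transgenic T. cruzi replicating inside host cells; inhibitors lower the luminescence signal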
[3] = target: T2, Microphthalmia-associated transcription factor (Homo sapiens, UniProt O75030); assay: reducers of TRPM1 reporter luminescence, concentration series – cell-based, SK-MEL-5, cherry-picked, set 3, MITF inhibitor project, dose response (AID 493073); format: functional;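 note: SK-MEL-5 melanoma cells with luciferase driven by the MITF target TRPM1 promoter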
T2 sequence (O75030 whole entry): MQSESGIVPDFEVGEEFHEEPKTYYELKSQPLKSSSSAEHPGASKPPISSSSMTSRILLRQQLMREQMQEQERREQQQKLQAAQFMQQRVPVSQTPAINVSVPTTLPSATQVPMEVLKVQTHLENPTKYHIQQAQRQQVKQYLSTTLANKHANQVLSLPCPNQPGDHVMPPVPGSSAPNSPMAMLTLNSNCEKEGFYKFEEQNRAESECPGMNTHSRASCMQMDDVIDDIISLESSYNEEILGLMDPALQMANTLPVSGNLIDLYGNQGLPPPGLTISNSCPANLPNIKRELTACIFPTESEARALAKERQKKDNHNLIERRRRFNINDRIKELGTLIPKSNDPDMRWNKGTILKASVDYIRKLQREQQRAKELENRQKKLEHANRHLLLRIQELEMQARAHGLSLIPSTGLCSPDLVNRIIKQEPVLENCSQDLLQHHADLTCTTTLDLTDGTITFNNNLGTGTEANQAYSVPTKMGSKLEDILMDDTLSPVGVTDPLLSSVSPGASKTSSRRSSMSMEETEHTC

[4] = Luminescence Cell-Based Dose Retest to Confirm Inhibitors of Cancer Stem Cells. [Related pubchem assays (depositor defined):AID2717, AID2721]; format: functional; settings: Homo sapiens
[5] = microbe, parasite or virus in culture; format: functional; settings: Mycobacterium tuberculosis
[6] = THP-1 cell cytotoxicity, dose response, cytotoxicity control for non-replicating M. tuberculosis project (AID 489025); format: functional
cells = format: functional
[7] = Vero E6 cell cytotoxicity, dose response, cytotoxicity control for non-replicating M. tuberculosis project, secondary assay (AID 492998); format: functional, VeroE6; settings: Vero C1008
Hexokinase = target: T3, Hexokinase (Trypanosoma brucei, UniProt Q38C41); assay: Confirmation assay for inhibitors of Trypanosoma brucei hexokinase 1-Analogue-first series. [Related pubchem assays (depositor defined):AID1430, AID1632, AID2516, AID2560, AID2579, AID2600, AID449725, AID492951]; format: functional
T3 sequence (Q38C41 whole entry): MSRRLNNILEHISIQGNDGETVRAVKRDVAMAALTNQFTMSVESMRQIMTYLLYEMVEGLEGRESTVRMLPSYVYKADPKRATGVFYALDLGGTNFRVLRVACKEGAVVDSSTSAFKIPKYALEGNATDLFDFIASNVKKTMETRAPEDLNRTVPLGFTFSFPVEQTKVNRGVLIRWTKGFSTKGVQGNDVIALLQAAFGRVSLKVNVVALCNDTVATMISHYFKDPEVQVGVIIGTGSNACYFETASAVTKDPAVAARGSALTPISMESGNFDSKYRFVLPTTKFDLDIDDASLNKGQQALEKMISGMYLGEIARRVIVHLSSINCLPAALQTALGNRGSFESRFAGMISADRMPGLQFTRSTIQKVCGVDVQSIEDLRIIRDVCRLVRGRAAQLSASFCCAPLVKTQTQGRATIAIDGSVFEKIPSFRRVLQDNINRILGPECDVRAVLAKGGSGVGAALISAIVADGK

[8] = target: T4, Replicative DNA helicase DnaB (Mycobacterium tuberculosis, UniProt P9WMR3); assay: DnaB intein splicing inhibitors, dose response, biochemical, cell-free fluorescence (AID 449749); format: functional
T4 sequence (P9WMR3 whole entry): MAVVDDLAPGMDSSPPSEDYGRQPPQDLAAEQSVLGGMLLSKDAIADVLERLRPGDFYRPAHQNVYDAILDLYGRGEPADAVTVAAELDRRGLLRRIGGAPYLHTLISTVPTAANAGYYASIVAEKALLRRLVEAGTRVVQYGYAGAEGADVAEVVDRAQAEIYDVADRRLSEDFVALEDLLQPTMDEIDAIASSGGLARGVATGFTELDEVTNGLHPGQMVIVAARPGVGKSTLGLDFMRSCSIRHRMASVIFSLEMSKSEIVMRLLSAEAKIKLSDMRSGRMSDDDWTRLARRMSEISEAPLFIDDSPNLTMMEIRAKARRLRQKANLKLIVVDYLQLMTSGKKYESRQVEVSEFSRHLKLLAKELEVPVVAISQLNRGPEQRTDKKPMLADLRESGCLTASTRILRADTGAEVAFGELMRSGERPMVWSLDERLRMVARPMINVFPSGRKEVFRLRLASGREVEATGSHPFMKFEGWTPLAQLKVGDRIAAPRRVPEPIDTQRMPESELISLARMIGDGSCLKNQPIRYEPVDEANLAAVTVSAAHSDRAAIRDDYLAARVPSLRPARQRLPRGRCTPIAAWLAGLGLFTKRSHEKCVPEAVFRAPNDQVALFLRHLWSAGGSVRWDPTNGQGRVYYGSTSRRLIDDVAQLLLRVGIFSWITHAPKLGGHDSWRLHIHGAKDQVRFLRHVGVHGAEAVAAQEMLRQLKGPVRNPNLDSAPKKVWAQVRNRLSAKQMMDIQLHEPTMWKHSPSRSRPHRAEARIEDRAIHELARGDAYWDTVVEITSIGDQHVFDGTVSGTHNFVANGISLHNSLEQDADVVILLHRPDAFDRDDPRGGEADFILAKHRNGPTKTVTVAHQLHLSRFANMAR

Protein RecA = target: T5, Protein RecA (Mycobacterium tuberculosis, UniProt P9WHJ3); assay: Fluorescence Cell-Free Homogeneous Dose Retest to Identify Inhibitors of RecA-Intein Splicing Activity. [Related pubchem assays (depositor defined):AID2097, AID2223, AID489010, AID492950]; format: functional
T5 sequence (P9WHJ3 whole entry): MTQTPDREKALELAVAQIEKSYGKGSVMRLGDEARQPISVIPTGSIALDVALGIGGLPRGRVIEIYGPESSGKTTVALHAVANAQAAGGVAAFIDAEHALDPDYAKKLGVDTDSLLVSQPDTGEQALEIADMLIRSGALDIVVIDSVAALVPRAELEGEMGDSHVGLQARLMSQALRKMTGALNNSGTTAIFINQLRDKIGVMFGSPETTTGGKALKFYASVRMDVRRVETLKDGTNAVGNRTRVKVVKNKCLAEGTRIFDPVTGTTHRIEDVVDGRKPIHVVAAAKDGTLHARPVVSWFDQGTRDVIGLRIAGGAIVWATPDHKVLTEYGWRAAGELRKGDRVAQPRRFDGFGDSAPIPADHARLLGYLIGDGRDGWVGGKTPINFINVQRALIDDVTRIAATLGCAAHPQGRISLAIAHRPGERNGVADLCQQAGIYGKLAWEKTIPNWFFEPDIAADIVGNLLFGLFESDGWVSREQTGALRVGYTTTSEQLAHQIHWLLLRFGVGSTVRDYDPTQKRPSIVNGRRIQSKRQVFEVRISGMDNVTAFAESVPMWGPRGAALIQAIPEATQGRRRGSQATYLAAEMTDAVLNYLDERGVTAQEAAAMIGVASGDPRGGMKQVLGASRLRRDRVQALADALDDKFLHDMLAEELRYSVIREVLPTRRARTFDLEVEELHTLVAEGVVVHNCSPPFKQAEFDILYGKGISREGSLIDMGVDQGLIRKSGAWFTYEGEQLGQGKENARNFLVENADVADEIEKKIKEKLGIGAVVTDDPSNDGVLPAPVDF

Nonstructural protein 1 = Nonstructural protein 1 (Influenza A virus, UniProt Q194T2); format: functional, Influenza A virus (A/California/07/2009(H1N1))
[9] = target: DNA dC->dU-editing enzyme APOBEC-3A (Homo sapiens, UniProt P31941); assay: Dose Response confirmation of small molecule APOBEC3A DNA Deaminase Inhibitors via a fluorescence-based single-stranded DNA deaminase assay. [Related pubchem assays (depositor defined):AID493011, AID493024]; format: functional
[10] = target: DNA dC->dU-editing enzyme APOBEC-3G (Homo sapiens, UniProt Q9HC16); format: functional;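 note: Dose-response counterscreen measuring inhibition of APOBEC3G DNA deaminase activity, run while confirming APOBEC3A inhibitors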
[11] = target: Induced myeloid leukemia cell differentiation protein Mcl-1 (Homo sapiens, UniProt Q07820); format: functional
[12] = viability of uninfected HEp-2 cells – cell-based, HTS, cytotoxicity control for RSV inhibitor project, dose response (AID 2410); format: functional; settings: human respiratory syncytial virus
[13] = target: T6, Ubiquitin-conjugating enzyme E2 N (Homo sapiens, UniProt P61088); format: functional;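 note: Dose-response confirmation in a TR-FRET assay detecting UBC13-driven polyubiquitin chain formation, inhibition measured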
T6 sequence (P61088 whole entry): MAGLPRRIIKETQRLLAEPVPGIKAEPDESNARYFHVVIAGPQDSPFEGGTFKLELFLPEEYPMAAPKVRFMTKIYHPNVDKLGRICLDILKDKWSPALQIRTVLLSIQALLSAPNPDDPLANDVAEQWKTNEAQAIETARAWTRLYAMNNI

[14] = viability of PTEN-deleted HCT116 cells – cell-based, HCT116 PTEN knockout, dose response (AID 1047); format: functional;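 note: HCT116 colon tumor cells with PTEN knocked out; cells exposed to compound for 60 hours before readout; potency for loss of cell viability measured by luminescence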
[15] = viability of HCT116 lacking mutant beta-catenin – cell-based, human colon tumor, dose response (AID 1045); format: functional;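 note: HCT116 colon tumor cells with beta catenin knocked out; cells exposed to compound for 60 hours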

Nonstructural protein 1, sequence (Q194T2 whole entry): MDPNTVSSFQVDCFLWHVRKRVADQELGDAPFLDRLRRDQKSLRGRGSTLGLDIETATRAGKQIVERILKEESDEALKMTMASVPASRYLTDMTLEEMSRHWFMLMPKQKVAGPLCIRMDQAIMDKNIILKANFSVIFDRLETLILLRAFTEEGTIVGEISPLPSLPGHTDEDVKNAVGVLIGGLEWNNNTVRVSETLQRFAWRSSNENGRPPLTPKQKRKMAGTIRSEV
Cytochrome P450 3A4, sequence (P08684 whole entry): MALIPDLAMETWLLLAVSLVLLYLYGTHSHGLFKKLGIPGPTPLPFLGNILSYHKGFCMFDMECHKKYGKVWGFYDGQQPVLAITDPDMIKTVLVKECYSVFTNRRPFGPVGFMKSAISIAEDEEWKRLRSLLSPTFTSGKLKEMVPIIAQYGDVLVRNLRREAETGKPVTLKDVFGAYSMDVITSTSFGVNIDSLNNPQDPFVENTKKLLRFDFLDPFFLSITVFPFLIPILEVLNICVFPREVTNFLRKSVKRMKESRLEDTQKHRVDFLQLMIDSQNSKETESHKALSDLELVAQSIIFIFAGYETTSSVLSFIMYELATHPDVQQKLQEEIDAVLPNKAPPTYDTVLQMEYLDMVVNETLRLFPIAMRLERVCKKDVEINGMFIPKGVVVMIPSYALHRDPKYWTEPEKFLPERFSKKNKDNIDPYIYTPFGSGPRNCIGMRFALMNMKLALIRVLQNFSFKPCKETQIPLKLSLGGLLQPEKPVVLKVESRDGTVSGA
DNA dC->dU-editing enzyme APOBEC-3A, sequence (P31941 whole entry): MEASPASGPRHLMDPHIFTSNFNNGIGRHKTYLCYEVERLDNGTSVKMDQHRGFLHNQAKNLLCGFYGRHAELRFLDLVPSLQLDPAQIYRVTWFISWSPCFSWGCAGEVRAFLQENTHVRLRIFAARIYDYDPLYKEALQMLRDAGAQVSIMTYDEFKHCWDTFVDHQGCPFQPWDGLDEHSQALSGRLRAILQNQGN
DNA dC->dU-editing enzyme APOBEC-3G, sequence (Q9HC16 whole entry): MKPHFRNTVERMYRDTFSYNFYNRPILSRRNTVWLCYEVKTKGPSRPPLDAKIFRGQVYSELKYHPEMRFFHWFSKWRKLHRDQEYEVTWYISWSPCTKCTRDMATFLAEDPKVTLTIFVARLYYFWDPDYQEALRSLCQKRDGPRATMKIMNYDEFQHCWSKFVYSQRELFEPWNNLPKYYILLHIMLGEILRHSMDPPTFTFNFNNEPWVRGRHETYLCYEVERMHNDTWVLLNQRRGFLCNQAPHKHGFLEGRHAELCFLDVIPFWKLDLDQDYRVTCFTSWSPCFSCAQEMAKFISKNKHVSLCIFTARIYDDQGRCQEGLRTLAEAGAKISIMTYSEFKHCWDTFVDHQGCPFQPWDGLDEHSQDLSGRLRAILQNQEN
Induced myeloid leukemia cell differentiation protein Mcl-1, sequence (Q07820 whole entry): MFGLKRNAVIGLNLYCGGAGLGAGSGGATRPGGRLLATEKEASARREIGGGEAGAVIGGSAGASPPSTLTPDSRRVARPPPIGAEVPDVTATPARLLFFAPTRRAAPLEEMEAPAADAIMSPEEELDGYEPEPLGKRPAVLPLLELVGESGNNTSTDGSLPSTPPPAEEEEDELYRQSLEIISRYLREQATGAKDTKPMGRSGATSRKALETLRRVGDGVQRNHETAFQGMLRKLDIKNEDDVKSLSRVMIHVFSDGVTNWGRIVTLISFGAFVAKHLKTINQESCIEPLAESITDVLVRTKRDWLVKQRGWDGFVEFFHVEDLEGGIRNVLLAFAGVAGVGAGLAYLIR

Compound: COc1ccc(/C=C2/SC(=S)N(n3c(C)ccc3C)C2=O)cc1
- IC50 (Coagulation factor XII): > 50 µM (inactive)

Compound: COc1ccc(CNC(=O)C2CSC(=O)C2)cc1 (stereo unspecified)
- AC50 (Cytochrome P450 3A4): inconclusive
- EC50 [1]: 10.3 µM (active)
- EC50 [2]: > 30 µM (not active)

Compound: COc1ccccc1OCCN1CSC(=S)N(C)C1
- AC50 [3]: 12.2 µM (active)
- AC50 [4]: 2.4 µM (active)
- CC50 [5]: 7.54 µM (active)
- CC50 [6]: 6.71 µM (active)
- IC50 (cells): 6.69 µM (active)
- CC50 [7]: 5.83 µM (active)

Compound: COc1ccc(C(=O)Nc2cc(Cl)ccc2O)cc1
- IC50 (Hexokinase): 25 µM (inactive)

Compound: COc1ccc(C(=O)Nc2cc(-c3ccccc3)ccc2C(=O)O)cc1
- IC50 (Hexokinase): > 25 µM (inactive)

Compound: Cc1ccc(C)c(NC(=O)CSc2n[nH]c(-c3ccccn3)n2)c1
- AC50 [8]: 163 µM (active)
- EC50 (Protein RecA): > 380 µM (inactive)
- IC50 (Nonstructural protein 1): 5.46 µM (active)

Compound: Nc1n[nH]c(SCn2nnc3ccccc3c2=O)n1
- IC50 (Coagulation factor XII): > 50 µM (inactive)

Compound: CCN1C(NCCOC)=N[C@@H](c2cccc(C(F)(F)F)c2)C(C(=O)OC)=C1C
- IC50 [9]: 2.09 µM (active)
- IC50 [10]: 1.95 µM (active)

Compound: Cc1ccc(C(=O)C(=O)c2ccc(C)c(N)c2)cc1N
- IC50 (Coagulation factor XII): 15.7 µM (active)

Compound: O=C(NC(=S)N1CCN(Cc2ccc3c(c2)OCO3)CC1)c1ccc(Cl)cc1
- IC50 (cells): 18.1 µM (active)
- CC50 [7]: 19.2 µM (active)

Compound: NNC(=O)c1ccc(CSc2nc3ccccc3s2)cc1
- IC50 (Coagulation factor XII): > 50 µM (inactive)

Compound: CC1CCCC(C2(O)C(=O)Nc3ccccc32)C1=O (stereo unspecified)
- IC50 [9]: 5.46 µM (active)
- IC50 [10]: 5.64 µM (active)

Compound: COc1ccc(NC(=O)c2ccccc2C(=O)O)cc1
- IC50 (Hexokinase): > 25 µM (inactive)

Compound: c1cncc(C2Nc3cccc4cccc(c34)N2)c1
- IC50 (Nonstructural protein 1): > 100 µM (active)
- IC50 [11]: 9.59 µM (active)

Compound: CCCCCCCSc1cc(OC)c(CCN(C)C)cc1OC
- CC50 [12]: 21.3 µM (active)
- IC50 [13]: > 20 µM (inactive)
- IC50 (Nonstructural protein 1): 44.4 µM (active)
- EC50 [14]: 9.16 µM (active)
- EC50 [15]: 7.83 µM (active)

Compound: CCCN(C/C=C\I)[C@@H]1CCc2cccc(O)c2C1
- AC50 (Cytochrome P450 3A4): inconclusive

Compound: CC(=O)N1CCC2(CC1)CN(C(c1ccccc1)c1ccccc1)C2
- AC50 (Cytochrome P450 3A4): inconclusive

Compound: CN(C)c1ccc(NC(=O)CC(NCc2ccccn2)C(=O)O)cc1 (stereo unspecified)
- IC50 (Nonstructural protein 1): 1.51 µM (active)

Compound: O=C(Nc1cc(Cl)ccc1C(=O)O)c1ccc(Cc2ccccc2)cc1
- IC50 (Hexokinase): 13.6 µM (active)
